Assay results from patent US8466089B2, “Pyrazole compounds, process for their production and herbicides containing them” (Ishihara Sangyo Kaisha, Ltd., priority 2008, dated 2013).

Columns and labels:
Format in all cases: in vivo
rice (Oryza sativa L.) [1] = experiment: Test Example 2, soil application on the day after sowing; conditions: 21st to 22nd day after application, visual, read-out: Growth inhibition rate (%) Rice
Source text: (§1) Upland field soil was put into a 1/170,000 hectare pot, and seeds of various plants (barnyardgrass (Echinochloa crus-galli L.), crabgrass (Digitaria sanquinalis L.), green foxtail (Setaria viridis L.), redroot pigweed (Amaranthus retroflexus L.), prickly sida (Sida spinosa L.), velvetleaf (Abutilon theophrasti MEDIC.), rice (Oryza sativa L.), corn (Zea mays L.), soybean (Glycine max Merr.)) and wheat (Triticum spp.) were sown. On the day after sowing, wettable powders or emulsifiable concentrates of the compounds of the present invention prepared in accordance with a conventional preparation method, were weighed so that the active ingredients became the prescribed amounts, and diluted with water in an amount corresponding to 500 liter per 1 hectare, followed by soil application with a small sprayer.
(§2) On the 21st to 22nd day after the application, the state of growth of the respective plants was visually observed, and the herbicidal effect was evaluated by a growth inhibition rate (%) of from 0 (equivalent to the non-treated area) to 100% (complete kill).

[2] = test system: redroot pigweed (Amaranthus retroflexus L.); experiment: as above; conditions: 21st to 22nd day after application, visual, read-out: Growth inhibition rate (%) Redroot pigweed
Source text: as §1, §2

[3] = test system: barnyardgrass (Echinochloa crus-galli L.); experiment: as above; conditions: 21st to 22nd day after application, visual, read-out: Growth inhibition rate (%) Barnyardgrass
Source text: as §1, §2

[4] = test system: velvetleaf (Abutilon theophrasti MEDIC.); experiment: as above; conditions: 21st to 22nd day after application, visual, read-out: Growth inhibition rate (%) Velvetleaf
Source text: as §1, §2

wheat (Triticum spp.) [5] = experiment: as above; conditions: 21st to 22nd day after application, visual, read-out: Growth inhibition rate (%) Wheat
Source text: as §1, §2

corn (Zea mays L.) [6] = experiment: as above; conditions: 21st to 22nd day after application, visual, read-out: Growth inhibition rate (%) Corn
Source text: as §1, §2

[7] = test system: soybean (Glycine max Merr.); experiment: as above; conditions: 21st to 22nd day after application, visual, read-out: Growth inhibition rate (%) Soybean
Source text: as §1, §2

[8] = test system: crabgrass (Digitaria sanquinalis L.); experiment: as above; conditions: 21st to 22nd day after application, visual, read-out: Growth inhibition rate (%) Crabgrass
Source text: as §1, §2

[9] = test system: prickly sida (Sida spinosa L.); experiment: as above; conditions: 21st to 22nd day after application, visual, read-out: Growth inhibition rate (%) Prickly sida
Source text: as §1, §2

[10] = test system: green foxtail (Setaria viridis L.); experiment: as above; conditions: 21st to 22nd day after application, visual, read-out: Growth inhibition rate (%) Green foxtail
Source text: as §1, §2

[11] = test system: rice (Oryza sativa L.) (var.: Nihonbare); experiment: Test Example 3, paddy field pot, transplanted rice; conditions: applied 4th day after transplantation, 20th to 23rd day after application, read-out: Growth inhibition rate (%) Rice
Source text: (§3) Paddy field soil was put into a 1/1,000,000 hectare pot, and seeds of barnyardgrass (Echinochloa oryzicola vasing.) and Japanese bulrush (Scirpus juncoides) were sown and lightly covered with soil. Then, pot was left to stand in a greenhouse in a state irrigated to a water depth of from 0.5 to 1 cm, and next day or two days later, tubers of Japanese ribbon waparo (Sagittaria pygmaea) were planted. Then, the irrigated water depth was maintained to be from 3 to 4 cm, and when barnyardgrass and Japanese bulrush reached 0.5 leaf stage, and Japanese ribbon waparo reached primary leaf stage, a water diluted solution of a wettable powder or an emulsifiable concentrate of the compound of the present invention prepared in accordance with a conventional preparation method, was uniformly dropwise applied by a pipette so that the amount of active ingredients would be a prescribed amount. Further, paddy field soil was put into a 1/1,000,000 pot, followed by soil puddling to an irrigated water depth of from 3 to 4 cm. Next day, rice (Oryza sativa L.) (var.: Nihonbare) of two leaf stage was transplanted in a transplantation depth of 3 cm. On the 4th day after transplantation, the compound of the present invention was applied in the same manner as described above.
(§4) On the 13th to 17th day after application, the state of growth of barnyardgrass, Japanese bulrush and Japanese ribbon waparo was visually observed, and on the 20th to 23rd day after application, the state of growth of rice was visually observed, and the herbicidal effect was evaluated by a growth inhibition rate (%) of 0 (equivalent to the non-treated area) to 100% (complete kill).

rice (Oryza sativa L.) [12] = experiment: Test Example 1, foliar treatment in upland pots; conditions: 20th to 22nd day after application, visual, read-out: Growth inhibition rate (%) Rice
Source text: (§5) Upland field soil was put into a 1/170,000 hectare pot, and seeds of various plants were sown. When the respective plants reached predetermined leaf stage ((1) barnyardgrass (Echinochloa crus-galli L.): 1.2 to 3.0 leaf stage, (2) crabgrass (Digitaria sanguinalis L.): 1.0 to 3.0 leaf stage, (3) green foxtail (Setaria viridis L.): 1.5 to 3.0 leaf stage, (4) redroot pigweed (Amaranthus retroflexus L.): cotyledon stage to 1.5 leaf stage, (5) prickly sida (Sida spinosa L.): cotyledon stage to 2.0 leaf stage, (6) velvetleaf (Abutilon theophrasti MEDIC.): cotyledon stage to 1.3 leaf stage, (7) rice (Oryza sativa L.): 1.2 to 2.5 leaf stage, (8) corn (Zea mays L.): 2.0 to 3.3 leaf stage, (9) soybean (Glycine max Merr.): primary leaf stage to 0.3 leaf stage) and wheat (Triticum spp.): 2.0 to 3.0 leaf stage, wettable powders or emulsifiable concentrates of the compounds of the present invention prepared in accordance with a conventional preparation method, were weighed so that the active ingredients became the prescribed amounts, and diluted with water in an amount corresponding to 500 liter per 1 hectare (containing 0.1 vol % of an agricultural spreader (“KUSARINOH”, manufactured by NIHON NOHYAKU CO., LTD.)). The spray solutions thus prepared were applied for foliar treatment by a small sprayer.
(§6) On the 20th to 22nd day after application, the state of growth of the respective plants was visually observed, and the herbicidal effect was evaluated by a growth inhibition rate (%) of 0 (equivalent to the non-treated area) to 100% (complete kill).

[13] = test system: redroot pigweed (Amaranthus retroflexus L.); experiment: Test Example 1, foliar treatment in upland pots; conditions: 20th to 22nd day after application, visual, read-out: Growth inhibition rate (%) Redroot pigweed
Source text: as §5, §6

[14] = test system: barnyardgrass (Echinochloa crus-galli L.); experiment: Test Example 1, foliar treatment in upland pots; conditions: 20th to 22nd day after application, visual, read-out: Growth inhibition rate (%) Barnyardgrass
Source text: as §5, §6

[15] = test system: velvetleaf (Abutilon theophrasti MEDIC.); experiment: Test Example 1, foliar treatment in upland pots; conditions: 20th to 22nd day after application, visual, read-out: Growth inhibition rate (%) Velvetleaf
Source text: as §5, §6

[16] = test system: crabgrass (Digitaria sanguinalis L.); experiment: Test Example 1, foliar treatment in upland pots; conditions: 20th to 22nd day after application, visual, read-out: Growth inhibition rate (%) Crabgrass
Source text: as §5, §6

wheat (Triticum spp.) [17] = experiment: Test Example 1, foliar treatment in upland pots; conditions: 20th to 22nd day after application, visual, read-out: Growth inhibition rate (%) Wheat
Source text: as §5, §6

[18] = test system: soybean (Glycine max Merr.); experiment: Test Example 1, foliar treatment in upland pots; conditions: 20th to 22nd day after application, visual, read-out: Growth inhibition rate (%) Soybean
Source text: as §5, §6

[19] = test system: green foxtail (Setaria viridis L.); experiment: Test Example 1, foliar treatment in upland pots; conditions: 20th to 22nd day after application, visual, read-out: Growth inhibition rate (%) Green foxtail
Source text: as §5, §6

[20] = test system: barnyardgrass (Echinochloa oryzicola vasing.); experiment: Test Example 3, paddy field pot, application to irrigated water; conditions: applied at 0.5 leaf stage, 13th to 17th day after application, read-out: Growth inhibition rate (%) barnyard grass
Source text: as §3, §4

[21] = test system: Japanese bulrush (Scirpus juncoides); experiment: as above; conditions: Schoenoplectiella juncoides, applied at 0.5 leaf stage, 13th to 17th day after application, read-out: Growth inhibition rate (%) Japanese bulrush
Source text: as §3, §4

[22] = test system: Japanese ribbon waparo (Sagittaria pygmaea); experiment: as above; conditions: applied at primary leaf stage, 13th to 17th day after application, read-out: Growth inhibition rate (%) Japanese ribbon waparo
Source text: as §3, §4

corn (Zea mays L.) [23] = experiment: Test Example 1, foliar treatment in upland pots; conditions: 20th to 22nd day after application, visual, read-out: Growth inhibition rate (%) Corn
Source text: as §5, §6

[24] = test system: prickly sida (Sida spinosa L.); experiment: Test Example 1, foliar treatment in upland pots; conditions: 20th to 22nd day after application, visual, read-out: Growth inhibition rate (%) Prickly sida
Source text: as §5, §6

SMILES	inhibition at 250 g/ha (rice (Oryza sativa L.) [1]) [%]	inhibition at 250 g/ha [2] [%]	inhibition at 250 g/ha [3] [%]	inhibition at 250 g/ha [4] [%]	inhibition at 250 g/ha (wheat (Triticum spp.) [5]) [%]	inhibition at 250 g/ha (corn (Zea mays L.) [6]) [%]	inhibition at 250 g/ha [7] [%]	inhibition at 250 g/ha [8] [%]	inhibition at 250 g/ha [9] [%]	inhibition at 250 g/ha [10] [%]	inhibition at 63 g/ha [11] [%]	inhibition at 7 g/ha [13] [%]	inhibition at 7 g/ha [14] [%]	inhibition at 7 g/ha [15] [%]	inhibition at 7 g/ha [16] [%]	inhibition at 7 g/ha (wheat (Triticum spp.) [17]) [%]	inhibition at 7 g/ha [19] [%]	inhibition at 63 g/ha [20] [%]	inhibition at 63 g/ha [21] [%]	inhibition at 63 g/ha [22] [%]	also measured
COCc1c(S(C)(=O)=O)ccc(C(=O)c2cnn(C)c2OC(C)OC(=O)OC)c1C (stereo not shown) [Compound No. 1-3, 1-(4-(3-(Methoxymethyl)-2-methyl-4-(methylsulfonyl)benzoyl)-1-methyl-1H-pyrazol-5-yloxy)ethyl methyl carbonate]	98	98	98	100	10	20	60	98	95	98	40	80	90	75	95	0	80	100	70	70	inhibition at 7 g/ha (rice (Oryza sativa L.) [12]): 60%; inhibition at 7 g/ha [18]: 70%
CCOCc1c(S(C)(=O)=O)ccc(C(=O)c2cnn(C)c2OC(C)OC(=O)OC)c1C (stereo not shown) [Compound No. 1-1, 1-(4-(3-(Ethoxymethyl)-2-methyl-4-(methylsulfonyl)benzoyl)-1-methyl-1H-pyrazol-5-yloxy)ethyl methyl carbonate]	95	90	100	98	20	10	20	100	90	98	10	60	95	50	90	0	60	100	70	90	inhibition at 7 g/ha (rice (Oryza sativa L.) [12]): 20%; inhibition at 7 g/ha [18]: 70%
CCn1ncc(C(=O)c2ccc(S(C)(=O)=O)c(C(=O)OC)c2C)c1OC(C)OC(=O)OC (stereo not shown) [Compound No. 2-2, Methyl 3-(5-(1-(methoxycarbonyloxy)ethoxy)-1-ethyl-1H-pyrazole-4-carbonyl)-2-methyl-6-(methylsulfonyl)benzoate]											80	98	98	95	80	0	80	100	80	90	inhibition at 7 g/ha (rice (Oryza sativa L.) [12]): 50%; inhibition at 7 g/ha (corn (Zea mays L.) [23]): 0%; inhibition at 7 g/ha [24]: 70%
CCOCc1c(S(C)(=O)=O)ccc(C(=O)c2cnn(C)c2OC(C)OC(=O)OCC)c1C (stereo not shown) [Compound No. 1-4, 1-(4-(3-(Ethoxymethyl)-2-methyl-4-(methylsulfonyl)benzoyl)-1-methyl-1H-pyrazol-5-yloxy)ethyl ethyl carbonate]	60	98	98	100	0	0	40	80	90	80	20	80	95	80	95	0	75	100	60	70	inhibition at 7 g/ha (corn (Zea mays L.) [23]): 0%; inhibition at 7 g/ha [18]: 80%
